Reference: ChEMBL document CHEMBL1127961, “Antineoplastic agents 315. Isolation and structure of the marine sponge cancer cell growth inhibitor phakellistatin 5” (1994)
Several values for one entry are separate records, joined by “and”; a condition that tells them apart may be missing. Equal values may be shown once.

Tested on: NCI
Assay: Antineoplastic activity against NCI human leukemia cancer cell line
Format: functional

CC[C@H](C)[C@@H]1NC(=O)C(C)NC(=O)[C@H](CCSC)NC(=O)C(C)NC(=O)[C@H](CC(N)=O)NC(=O)[C@H](Cc2ccccc2)NC(=O)C2CCCN2C1=O (single isomer, unassigned) [PHAKELLI STATIN 5]
GI50: 3000 nM and 600 nM
